Measurements: patent publication US20180085356A1, “METHOD OF TREATING DISEASE CHARACTERISED BY PROTEIN AGGREGATE DEPOSITION IN NEURONAL CELLS” (CHRONOS THERAPEUTICS LIMITED, priority 2013, published 2018)
Where two headings read alike, the source gives them in different places.

Experiments:
[1] = Tacrolimus blood levels in healthy human volunteers given capsule; format: in vivo; conditions: oral
Experimental: A hard gelatine capsule was filled with the following composition:
One capsule as above containing 0.3 mg tacrolimus was administered daily to healthy human volunteers for three successive days. […] Similarly, no change in TNF-α levels occurred as a result of administering 0.6 mg daily of tacrolimus to healthy volunteers. The average trough level of tacrolimus (level after 24 hours of administration of each dose) observed was approximately 220 pg/ml.

[2] = test system: C. elegans expressing 35 polyglutamine tract fused to YFP (Q35) in the body wall muscle; assay: C. elegans lifespan assay, polyglutamine Q35 strain; format: in vivo, Caenorhabditis elegans; conditions: p<0.05 vs. Q35 DMSO
Experimental: (§1) Tacrolimus was tested in a number of disease models using the nematode worm, Caenorhabditis elegans, in which aggregate-prone proteins associated with neurodegenerative diseases are expressed in certain cell types. The effect of tacrolimus was determined by measuring the lifespan of worms in the presence and absence of tacrolimus, using the following general methodology. All of the worms tested using these assays also contained, in addition to the transgene expressing the disease-related protein, a mutation in the bus-5 gene which confers drug-sensitivity.
(§2) C. elegans cultures were synchronised by incubating an asynchronous culture in basic sodium hypochlorite solution to kill everything but the bleach-resistant mature eggs. The eggs were added on to agar plates and then allowed to hatch and develop in the presence of the test compound (or vehicle) and bacterial food source. […] From this point on, each ageing population was inspected at regular intervals (e.g. daily) and viability assessed by counting the number of dead worms.
(§3) The cumulative number of dead worms for each population was used to generate a survival/viability plot to determine chronological lifespan (CLS). Survival was analysed using the Kaplan-Meier log-rank survival analysis method, using the Online Application for Survival (OASIS; see http://sbi.postech.ac.kr/oasis). […]

TDP-43(Q331K) mice = assay: Rotarod testing of TDP-43(Q331K) transgenic mice; format: in vivo, mouse; conditions: tacrolimus 0.25, 1.25 and 2.5 mg/kg p.o. 6 days a week for 70 weeks vs. vehicle
[3] = test system: FET3, SOD1, SOD2, COX9 transcripts; assay: Yeast transcript analysis by RT-qPCR; format: cell-based, Saccharomyces cerevisiae; conditions: 10 μg/ml tacrolimus, cultures aged 3 days, normalised to U4 snRNA
Experimental: A pre-culture was diluted 1/100 into synthetic complete medium and tacrolimus was added to a final concentration of 10 μg/ml. (An equivalent volume of DMSO was added to a parallel culture as a control.) The cultures were then allowed to age for 3 days, before RNA extraction and transcript analysis by reverse transcription-qPCR (RT-qPCR). (Transcript levels are normalised to that of the U4 snRNA.)

[4] = test system: unilaterally 6-OHDA-lesioned rats; assay: Amphetamine-induced rotational asymmetry in unilaterally 6-OHDA-lesioned rats; format: in vivo, rat; conditions: 1 mg/kg s.c. 6 days/week, by 6 months, compared to baseline; p<0.05 vs. vehicle at 6 months
Text: The objective of this study was to investigate the effect of chronic subcutaneous (s.c) tacrolimus treatment in an aged rat model of Parkinson's disease. Lesion of dopaminergic projections was created by unilateral injection of 6-hydroxydopamine (6-OHDA) in the right medial forebrain bundle (MFB), causing a widespread de-afferentation of substantia nigra pars compacta (SNc) and ventral tegmental area (VTA) terminal fields. The animals can then be monitored for amphetamine-induced rotation asymmetry behaviour: because the lesion is unilateral, asymmetric movement is observed. The degree to which a drug treatment is able to counteract the effects of the lesion can be measured by the reduction in the asymmetry of movement (i.e. the number of clockwise (CW) rotations vs. the number of counterclockwise (CCW) rotations). 50 female Fischer rats aged 18 months were stereotactically injected with 4 μl […] 6-OHDA into the right MFB. […] Motor asymmetry was monitored in automated rotometer bowls (TSE Systems, Germany) for 120 minutes after injection of amphetamine (2.5 mg/kg s.c.). The net rotation asymmetry score for amphetamine test was calculated by subtracting contralateral turns from the ipsilateral turns to the lesion side.

[5] = test system: C. elegans expressing mutant human SOD-1 (127X) in the body wall muscle; assay: C. elegans lifespan assay, mutant SOD-1 strain; format: in vivo, Caenorhabditis elegans
Experimental: as §1
as §2, with “eggs.” for “eggs. The eggs were added on to agar plates and then allowed to hatch and develop in the presence of the test compound (or vehicle) and bacterial food source.”
as §3
The effect of tacrolimus on C. elegans expressing wild-type or mutant human SOD-1 in the body wall muscle was determined. […]

C=CC[C@@H]1/C=C(\C)C[C@H](C)C[C@H](OC)[C@H]2O[C@@](O)(C(=O)C(=O)N3CCCC[C@H]3C(=O)O[C@H](/C(C)=C/[C@@H]3CC[C@@H](O)[C@H](OC)C3)[C@H](C)[C@@H](O)CC1=O)[C@H](C)C[C@@H]2OC [tacrolimus, Tacrolimus]
average peak level ([1]; 0.3 mg capsule daily, three days): approximately 3700 pg/mL
concentration at 24 h ([1]; human, blood, two capsules, single dose of 0.6 mg, read-out: expected trough level): ~0.44 ng/mL
AUC ([1]; human, blood, 0.3 mg capsule daily, three days, read-out: average area under the curve AUC 0_t): ~23.5 ng·h/mL
concentration at 24 h ([1]; human, blood, 0.3 mg capsule daily, three days, read-out: average trough level (after 24 hours of administration of each dose)): ~0.22 ng/mL
lifespan [2]: significantly increases lifespan
progression of motor decline (rotarod latency) (TDP-43(Q331K) mice): delays the progression of motor decline
expression of transcripts FET3, SOD1, SOD2 and COX9 [3]: upregulated
amphetamine-induced rotational asymmetry [4]: significant reduction in rotational asymmetry
increase in lifespan when bec-1 knocked down by RNAi ([5]; bec-1 RNAi, p>0.05 vs. bec-1 RNAi DMSO): virtually abolished
lifespan ([5]; p<0.05 DMSO vs. Tacrolimus): significant increase in lifespan
